What was measured:
MPO = target: T1, MPO (Homo sapiens, UniProt P05164); experiment: KYC/AA(n) peptide inhibition of MPO HOCl production (TMB assay) at varied pH; assay type: biochemical; settings: regardless of pH
T1 sequence (P05164 49-745): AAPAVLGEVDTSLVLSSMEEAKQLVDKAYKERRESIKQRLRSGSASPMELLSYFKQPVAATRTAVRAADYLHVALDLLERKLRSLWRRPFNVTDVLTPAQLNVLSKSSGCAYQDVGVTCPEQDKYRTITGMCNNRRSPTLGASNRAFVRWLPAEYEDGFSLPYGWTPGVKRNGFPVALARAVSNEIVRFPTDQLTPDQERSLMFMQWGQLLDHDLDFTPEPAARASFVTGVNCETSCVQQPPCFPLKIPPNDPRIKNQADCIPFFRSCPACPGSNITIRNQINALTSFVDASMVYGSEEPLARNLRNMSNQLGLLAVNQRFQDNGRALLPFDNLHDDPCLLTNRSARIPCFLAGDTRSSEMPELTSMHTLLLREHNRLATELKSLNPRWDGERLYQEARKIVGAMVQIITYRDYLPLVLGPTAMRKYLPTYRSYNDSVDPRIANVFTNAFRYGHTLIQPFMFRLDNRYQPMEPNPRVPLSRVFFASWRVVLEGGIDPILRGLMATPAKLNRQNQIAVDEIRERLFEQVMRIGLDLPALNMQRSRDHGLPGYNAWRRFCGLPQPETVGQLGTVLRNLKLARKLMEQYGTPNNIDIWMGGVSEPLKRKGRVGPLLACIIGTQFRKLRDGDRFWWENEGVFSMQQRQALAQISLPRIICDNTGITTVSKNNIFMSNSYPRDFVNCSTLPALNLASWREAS
From the text: Small peptides of generic formula AA(n) (where AA represents different amino acids, and n can be 2-5) are both substrates and inhibitors of MPO (alternatively, inhibitors of EPO). These peptides are […] at the active site of MPO, which subsequently decreases the production of toxic oxidants that includes but not restricted to hypochlorous acid. All MPO activities (i.e., hypochlorous acid production) described herein were quantified by the 3,3′,5,5′-tetramethylbenzidine (TMB) assay. […] The free radical itself may act as an activated species, and is stable enough to react with proximal proteins, peptides, metabolites or small molecules to effect further change. The free radical is not limited to a single target, but may effect change multiple independent targets. In a non-limiting example, the free radical goes on to form a hetero- or homo dimer via an oxidized —S—S— disulfide (or di-Selenium) linkage. Finally, the more interactions between the peptide and active site of MPO that occurs the lower numerical IC50 value of the peptide inhibitor.
KYZ is […] in the presence of MPO, which subsequently decreases the production of hypochlorous acid. All MPO activities (i.e., hypochlorous acid production) were quantified by the 3,3′,5,5′-tetramethylbenzidine (TMB) assay. The tripeptide KXZ, requires amino acid #1 (AA1, K) to be a native amino acid or an artificial amino acid (aa) with a basic side-chain such as an amine functional group (e.g., Lysine (K)). Amino acid #2 (AA2, X) is a native or artificial amino acid that may contain a polar, non-polar, or aromatic amino acid.

HMGB1 = target: T2, HMGB1 (Homo sapiens, UniProt P09429); experiment: Streptavidin-affinity blot of B-KYC thiylated recombinant HMGB1 and MPO in MPO reaction mixture; assay type: biochemical; settings: split sample, DTT 100 mM
T2 sequence (P09429 1-215): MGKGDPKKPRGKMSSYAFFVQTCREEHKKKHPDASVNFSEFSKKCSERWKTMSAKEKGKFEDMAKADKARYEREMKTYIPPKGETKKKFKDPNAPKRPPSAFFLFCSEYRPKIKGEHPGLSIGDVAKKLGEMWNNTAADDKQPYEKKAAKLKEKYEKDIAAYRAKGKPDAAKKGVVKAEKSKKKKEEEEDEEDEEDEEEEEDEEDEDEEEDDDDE
Procedure: FIG. 30. MPO Oxidizes KYC to a KYC Thiyl Radical That Thiylates HMGB1. (A) ESR spectrum of KYC thiyl S°-DMPO generated by an MPO reaction mixture containing MPO (120 nM), H2O2 (50 μM) and KYC (30 μM). (B) Streptavidin-affinity blot of KYC thiylated HMGB1 and MPO in a split sample, one half treated neat and other half treated with DTT (100 mM) to reduce disulfide bonds.
This spectrum is similar to the spectrum of DMPO-S◯-YC generated when the dipeptide YC was added to an MPO reaction mixture containing DMPO [34].
Previously we reported that KYC reduced MPO-dependent oxidative damage because KYC competes with native substrates, such as chloride and nitrite, that are oxidized to “toxic” oxidants. In 2013, we argued that KYC reduced MPO-dependent oxidative damage because the resultant KYC thiyl radical would autoscavenge to prevent radical propagation. […] To determine the radical mechanisms mediating MPO oxidation of KYC and KYC thiylation of HMGB1, we performed two experiments. In the first experiment, we trapped KYC thiyl radicals generated by MPO with DMPO (FIG. 30A), which confirms our conclusions in 2013 [27]. In the second experiment, we added recombinant HMGB1 to PBS containing MPO+H2O2+B-KYC and determined KYC thiylation by streptavidin affinity blotting. […]

RLMVEC = experiment: KYC thiylation of endothelial cell proteins in RLMVEC cultures; assay type: cell-based, rat
From the text: FIG. 29. Effects of Oxidative Stress on KYC Thiylation of RLMVEC Proteins. (A) Streptavidin affinity blot of KYC thiylated proteins from cell lysates prepared from RLMVEC cultures treated with B-KYC (baseline), B-KYC+MPO+H2O2 (MPO-dependent), and B-KYC+H2O2 (H2O2-dependent). (B) Immunoblot for Nrf2 in RLMVEC cultures treated as described in A. (C) Immunoblot for Keap1 in RLMVEC cultures treated as described in A. (D) Immunoblot for HMGB1 in RLMVEC cultures treated as described in A.(E) Immunoblot for β-Actin in RLMVEC cultures treated as described in A.(F) Bar chart showing relative levels of KYC thiylation, Nrf2, Keap1, and HMGB1 as a function of β-Actin (n=2, *=p<0.05, statistical analysis was preformed by ANOVA with appropriate post hoc tests).
FIG. 31. MPO Oxidation of KYC Increases KYC Thiylation of Extracellular HMGB1. […] This conclusion is based on the relative levels of KYC thiylated HMGB1 in panel A vs. KYC thiylated HMGB1 as a function of HMGB1 protein in conditioned media vs. RLMVEC cell lysates.
Rat lung microvascular endothelial cells (RLMVEC) from neonatal Sprague-Dawley rats (RN-6011) and rat endothelial growth medium (EGM, M1266SF) were from Cell Biologics (Chicago, Ill.). Amicon®Ultra-4 centrifugal concentrators with 3K cut-off (UFC800324) were from Merck Millipore Ltd (Carrigtwohill, Ireland). PierceTM Streptavidin (#88816), Protein G (#88848), Protein A Magnetic Beads (#88845), PierceTM ECL Western Blotting Substrate (#32106), and SuperSignalTM West Femto Maximum Sensitivity Substrate (#34095) were from Thermo Fisher Scientific (Waltham, MA). Rabbit antibodies for myeloperoxidase heavy chain (MPO, sc-33596) and TLR4 (sc-10741) were from Santa Cruz Biotechnology (Dallas, Texas). Rabbit antibody for Cl-Tyr (HP5002) was from Hycult Biotech (Plymouth Meeting, PA). The chicken antibody for HMGB1 (326052233) was from SHINO-TEST Corporation (Kanagawa, Japan). Rabbit antibody for RAGE (GTX23611) was from GeneTex (Irvine, CA). Mouse antibodies for PECAM-1/CD31 (ab24590), for 8-OH-dG (ab48508), and for rat endothelial cell antigen-1 (RECA-1, ab9774) were from Abcam (Cambridge, MA). Rabbit antibody for Cox1 (sc-7950) and Cox2 (sc-7951) were from Santa Cruz Biotechnology. Mouse (ab190377) and rabbit (ab77302b) antibodies for HMGB1, and streptavidin-HRP (ab7403) were from Abcam (Cambridge, Mass.). Rabbit antibody for acetylated-HMGB1 (OASG03545) was from Aviva System Biology (San Diego, Calif.). Rabbit antibodies for Nrf2 (sc-722) and TLR4 (sc-30002) were from Santa Cruz Biotechnology (Dallas, Tex.). Rabbit antibody against Keap1 (ABS97) and mouse antibody for β-actin (A2228) were from Millipore-Sigma (St. Louis, Mo.). Rabbit antibody for cysteine sulfonyl (ADI-OSA-820) was from Enzo Life Sciences (Farmingdale, N.Y.). Mouse antibody for glutathionylated proteins (D8) and all other chemicals were from Sigma-Aldrich (St. Louis, Mo.). All antibodies were certified either by the manufacturer or were used previously and certified by the authors, as was the case for the anti-HMGB1 antibody.
Effects of Oxidative Stress on KYC Thiylation on Endothelial Cell Proteins in RLMVEC Cultures: To determine the effects of oxidative stress on KYC thiylation, RLMVEC cultures were treated with B-KYC to follow KYC thiylation with streptavidin-affinity blotting as outlined in Methods. Three different levels of oxidative stress were used to determine the effects of oxidative stress on KYC thiylation of endothelial cell proteins: media alone (baseline); media containing MPO+H2O2 (MPO-dependent); and media containing H2O2 alone (H2O2-dependent) (FIG. 29A). KYC thiylation of RLMVEC proteins at baseline was low (FIG. 29A, first two lanes).

| inhibitory properties (IC50) KVC versus KVVC (MPO) | Substance | fluorescent band density of B-KYC thiylated HMGB1 and MPO (HMGB1) | KYC thiylation of RLMVEC proteins (RLMVEC; H2O2-dependent (media containing H2O2 alone)) | KYC thiylation of RLMVEC proteins (RLMVEC; MPO-dependent (media containing MPO+H2O2)) | KYC thiylation of RLMVEC proteins (RLMVEC; baseline (media alone)) |
| --- | --- | --- | --- | --- | --- |
| improvement of inhibitory properties | Ac-KVVC-amide [N-acetylated, C-amidated AA(n) peptide, KVC with an added amino acid] | – | – | – | – |
| – | biotin-aminohexanoyl-N-[Ahx]-KYC-amide [B-KYC] | decreased in the sample treated with dithiothreitol | more than observed at baseline, but not as high as MPO-dependent B-KYC thiylation | markedly increased | low |

Reference: patent publication US20220409692A1, “Systems Chemico-Pharmacology Drugs and Methods of Use” (The Medical College of Wisconsin, priority 2019, published 2022)
